The record followed here is patent publication US20130231290A1, “METHODS OF DIAGNOSING AND TREATING NEURODEGENERATIVE DISEASES” (DIGNITY HEALTH, priority 2010, published 2013).

Data set [1] concerns the target T1, α7-containing-nAChRs in nAChR β2 subunit knockout mice (Mus musculus, UniProt P49582).
T1 construct: MS/DB neurons derived from nAChR β2 subunit knock-out mice; endogenous in cells; host or cells: acutely dissociated MS/DB neurons of nAChR β2 knockout mice (C57/Bl6 background)
It counts as cell-based.

Data set [2] relates to neurons from α7−/− mice. As to the kind of experiment: Neuronal excitability after chronic Aβ in cultured hippocampal neurons from α7−/− mice. It counts as cell-based, mouse. Particulars: chronic exposure. The source says:
To further investigate whether pharmacological block of α7-nAChR eliminated the expression of neuronal hyperexcitation after chronic Aβ exposure. […] Comparing cultured neurons from WT and α7−/− mice could further establish if α7-nAChRs play a role in the induction of Aβ-induced neuronal hyperexcitation by comparing cultured neurons from WT and α7−/− mice.

The subject of data set [3] is α7−/− hippocampal neurons. As to the kind of experiment: Aβ toxicity in α7−/− hippocampal neurons. It counts as cell-based, mouse. As to conditions: α7−/− compared to WT hippocampal neurons.
Data set [4] deals with T2, α7β2-nAChRs on MS/DB cholinergic neurons (Mus musculus, UniProt P49582+Q9ERK7).
T2 construct: Compared to MS/DB neurons from WT mice; endogenous in cells; host or cells: acutely dissociated MS/DB neurons of wild-type C57/Bl6 mice
As to the kind of experiment: Choline-induced currents in MS/DB neurons from wild-type mice. As to conditions: 1 nM. It counts as cell-based.

The subject of data set [5] is cultured mouse hippocampal neurons. Nature of the data set: Aβ-induced degeneration of cultured hippocampal neurons (DAPI staining, LDH levels). The class given is cell-based.
Data set [6] deals with T3, heteromeric α7β2-nAChRs (Rattus norvegicus, UniProt P12390+Q05941).
T3 construct: expressed in transfected cells; host or cells: Xenopus laevis oocytes injected with cRNA (pGEMHE vector)
It counts as cell-based.

Data set [7] deals with cultured hippocampal pyramidal neurons. Nature of the data set: Patch-clamp recording of neuronal excitability in cultured hippocampal neurons after chronic Aβ. It counts as cell-based, mouse. Particulars: for neuronal excitability (spontaneous bursting AP firing, input-output curve): chronic exposure, treated vs untreated neurons. For orientation: In patch-clamp work, channel activity is measured electrically.

The subject of data set [8] is GABAA receptors. Nature of the data set: GABA-induced currents in rat MS/DB cholinergic neurons. Particulars: 1 nM peptide; 0.1 mM GABA. It counts as cell-based.
Data set [9] deals with α7β2-nAChRs on MS/DB cholinergic neurons (Rattus norvegicus, UniProt P12390+Q05941). Nature of the data set: Perforated-patch whole-cell recording of nAChR-mediated (choline/ACh-induced) currents in acutely dissociated MS/DB cholinergic neurons. It counts as cell-based.
Data set [10] concerns the target T4, homomeric α7-nAChRs on VTA DAergic neurons (Rattus norvegicus, UniProt Q05941).
T4 construct: native nAChR responses in rat MS/DB or VTA neurons; endogenous in cells; host or cells: acutely dissociated VTA dopaminergic neurons of Wistar rats
The class given is cell-based.

For data set [11], the system named is ionotropic glutamate receptors. As to the kind of experiment: Glutamate-induced currents in rat MS/DB cholinergic neurons. The class given is cell-based. As to conditions: 1 nM peptide; 1 mM glutamate.
For data set [12], the system named is α7−/− slices. As to the kind of experiment: CCh-induced network synchronization, field potential recordings in hippocampal CA1 slices from α7−/− mice. It counts as cell-based, mouse. As to conditions: 50 μM, mice 6 months old. The text has this:
(§1) Comparing CCh-induced network synchronization in the hippocampal CA1 slices from WT and α7−/− mice (6 months old) using field potential recordings allowed testing of whether α7-nAChRs contribute to network synchronization and seizure susceptibility.

In data set [13] the test system is hippocampal CA1 slices. As to the kind of experiment: CCh-induced network synchronization, field potential recordings in hippocampal CA1 slices from WT mice. It counts as cell-based, mouse. Particulars: 50 μM bath-perfusion, mice 6 months old.
From the text: as §1

Data set [14] relates to hippocampal slices prepared from 3×Tg-AD mice. Nature of the data set: CCh-induced network synchronization, field recordings in CA1 of hippocampal slices from 3×Tg-AD mice. It counts as cell-based, mouse. As to conditions: 3×Tg mice (10 month-old) compared to age-matched WT mice.
Data set [15] relates to MS/DB neurons. Nature of the data set: Current-clamp recording of spontaneous action potential firing in dissociated MS/DB neurons. Particulars: 1 μM. The class given is cell-based, rat.
Setting [16] is: chronic Aβ, neurons from WT mice.

Chain of α7β2-nAChRs on MS/DB cholinergic neurons (Rattus norvegicus, UniProt P12390+Q05941) (Q05941 23-502): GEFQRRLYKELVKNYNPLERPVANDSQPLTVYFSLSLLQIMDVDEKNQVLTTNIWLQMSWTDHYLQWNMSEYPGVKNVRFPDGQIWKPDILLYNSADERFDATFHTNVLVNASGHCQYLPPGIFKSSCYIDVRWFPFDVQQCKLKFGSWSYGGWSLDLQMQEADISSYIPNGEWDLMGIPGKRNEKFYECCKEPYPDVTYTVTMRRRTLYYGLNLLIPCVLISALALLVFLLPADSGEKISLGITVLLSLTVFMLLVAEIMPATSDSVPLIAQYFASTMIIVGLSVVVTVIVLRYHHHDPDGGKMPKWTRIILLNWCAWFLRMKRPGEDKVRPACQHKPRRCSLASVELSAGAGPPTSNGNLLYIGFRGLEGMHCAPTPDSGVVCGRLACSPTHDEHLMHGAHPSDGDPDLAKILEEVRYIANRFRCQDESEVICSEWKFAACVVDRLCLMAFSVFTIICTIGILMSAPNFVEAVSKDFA
Chain of α7β2-nAChRs on MS/DB cholinergic neurons (Rattus norvegicus, UniProt P12390+Q05941) (P12390 25-500): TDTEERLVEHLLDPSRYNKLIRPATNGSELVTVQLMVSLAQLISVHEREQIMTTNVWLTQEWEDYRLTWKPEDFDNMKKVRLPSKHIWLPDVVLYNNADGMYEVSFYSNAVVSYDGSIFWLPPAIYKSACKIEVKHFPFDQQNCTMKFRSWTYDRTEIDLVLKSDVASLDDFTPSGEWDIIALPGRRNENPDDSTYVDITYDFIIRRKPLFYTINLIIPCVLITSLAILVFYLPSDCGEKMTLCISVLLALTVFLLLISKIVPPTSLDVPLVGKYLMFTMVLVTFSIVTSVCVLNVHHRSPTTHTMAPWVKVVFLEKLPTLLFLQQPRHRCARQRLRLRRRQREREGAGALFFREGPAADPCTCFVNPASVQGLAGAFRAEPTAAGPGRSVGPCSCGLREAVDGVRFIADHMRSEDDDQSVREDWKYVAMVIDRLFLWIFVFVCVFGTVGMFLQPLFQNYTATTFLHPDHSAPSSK
T4 sequence (Q05941 23-502): as the sequence (Q05941 23-502) above
T1 sequence (P49582 23-502): as the sequence (Q05941 23-502) above, with A402T counted along it
T3 sequence (Q05941 23-502): as the sequence (Q05941 23-502) above
T3 sequence (P12390 25-500): as the sequence (P12390 25-500) above
T2 sequence (P49582 23-502): as the sequence (Q05941 23-502) above, with A402T counted along it
T2 sequence (Q9ERK7 26-501): as the sequence (P12390 25-500) above, with A350T, V371M, R379Q, T383A, P387L, V391M, V449I, P468S counted along it

For “Aβ1-42: amyloid beta peptides at positions 1-42 of the amyloid precursor protein (APP), purchased from rPeptide”, in [1], the “suppression of choline-induced currents” value is listed as “failed to suppress”. For the same compound, the “induction of neuronal hyperexcitation” value in [2] is reported as “failed to evoke neuronal hyperexcitation”. Also, the “toxic effects on hippocampal neurons” value in data set [3] is “did not show toxic effects”. The “suppression of choline-induced currents” value in data set [4] is listed as “did suppress”. For the same compound, in data set [5] (100 nM for 4, 7 and 10 days, primary cultured hippocampal neurons), the “cytotoxicity by LDH levels” value was “increased LDH levels”. Besides, in [5] (100 nM over several days), the “loss of cultured hippocampal neurons (DAPI staining)” value was “cell loss in an exposure-time-dependent manner”. Further, the “sensitivity of choline-induced currents to peptide” value in data set [6] was “demonstrated sensitivity”. Moreover, in [7] (setting [16]), the sEPSC amplitude entry is recorded as “but not amplitude” and the sEPSC frequency entry was “enhances sEPSC frequency”. Moreover, the “neuronal excitability (spontaneous bursting AP firing, input-output curve)” value in [7] was “shifted leftwards”. In data set [8], the “inhibition of GABA-induced currents” value is on record as “insensitive”. Further, the “effect on ACh-induced current” value in data set [9] was “evident”. Moreover, in data set [10], the “effect on choline-induced currents” value is “not sensitive”. Besides, the “inhibition of glutamate-induced currents” value in data set [11] is reported as “insensitive”.
On to “monomeric Aβ1-42: Aβ1-42 reconstituted in DMSO, predominant monomeric form”, for which the “suppression of choline-induced responses by peptide form” value (shortened to “suppression … by peptide form”) in [9] was “failed to suppress”.
As for `C[N+](C)(C)CCOC(N)=O` [CCh, carbachol], the figures for the induced network synchronization result in data set [12], in [13] and in data set [14] were “failed to induce θ-oscillations”, “induced two types of network synchronizations” and “much stronger network synchronization”, respectively.
With “fibrillar Aβ: Aβ1-42 stock incubated at 37° C. for 48 h at pH 6.0, predominantly fibrillar form”, in [7] (10 days treatment, n=11, untreated −62.8±3.3 mV), the “mean resting membrane potential of treated neurons” value is reported as −53.4±2.6 mV. The “neuronal excitability (spontaneous bursting AP firing, input-output curve)” value in data set [7] was “spontaneous bursting AP firing was observed”. Moreover, the “suppression … by peptide form” value in [9] was “weaker inhibitory effect”.
The term IC50 denotes the concentration at which inhibition is half-maximal. On to `CO[C@H]1CC=C2CCN3CCC4=C(CC(=O)OC4)[C@]23C1` [DHβE, dihydro-β-erythroidine], for which, in data set [1] (MS/DB neurons from β2 knockouts compared with wild-type), the “antagonist sensitivity of choline-induced currents” value was “lower sensitivity”. In data set [6] (10 mM choline-induced currents in oocytes), the “sensitivity to functional blockade, α7β2-nAChR compared with homomeric α7-nAChR” value was “more sensitive”. For the same compound, the “Hill coefficient of concentration-inhibition curve” value in data set [9] (10 mM choline-induced currents, MS/DB neurons, n=8) worked out at 0.9; in data set [10] (10 mM choline-induced currents, VTA neurons), 0.3. Moreover, the IC50 in data set [9] (10 mM choline, MS/DB neurons, n=8, read-out: IC50 for inhibition of choline-induced currents) is 170 nM; in data set [10] (10 mM choline, VTA neurons, n=7, read-out: IC50 for inhibition of choline-induced currents), > 100000 nM. Also, in data set [9] (printed as less potent in MS/BD than in VTA neurons), the “potency difference as inhibitor of choline-induced current, MS/DB vs VTA neurons” value is given as ~500 fold.
Regarding “oligomeric Aβ1-42: Aβ1-42 reconstituted in distilled water, predominantly oligomeric form”, the “suppression … by peptide form” value in [9] is given as “greatest suppression”.
As for `C[C@@H]1O[C@H](C[N+](C)(C)C)C[C@H]1O` [muscarine], the “sensitivity of spontaneous action potential firing” value in data set [15] is “insensitive”.
As for `CCN1C[C@]2(COC(=O)c3ccccc3N3C(=O)C[C@H](C)C3=O)CC[C@H](OC)[C@@]34[C@@H]5C[C@H]6[C@H](OC)[C@@H]5[C@](O)(C[C@@H]6OC)[C@@](O)([C@@H](OC)[C@H]23)[C@@H]14` [MLA, methyllycaconitine], in [7] (following a depolarizing pulse, MLA pretreated for 2 min, Aβ oligomers for 9 days), the “effect on enhanced neuronal excitation after chronic Aβ exposure” value is on record as “reversibly eliminated”.
Take `CNCC/C=C/c1cccnc1` [RJR-2403]: the “whole-cell current response to agonist” value in data set [9] is recorded as “insensitive”; in data set [10] it was “mimicked”.
